Assay results reported in patent publication US8088936B2, “Leukotriene B4 inhibitors” (Hoffman-La Roche Inc., priority 2009, dated 2012).

Tested on: Human leukemia HL-60 cells endogenously expressing BLT1 and BLT2 receptors
Test: Ca2+ flux assay for LTB4 antagonist assay (HL-60 FLIPR)
Format: cell-based
Conditions: retinoic acid induced HL-60 cells, inhibition of LTB4-induced Ca2+ flux, 30 min preincubation; read-out: LTB4 antagonism (HL-60 FLIPR)
Description: Assay of Compounds for Inhibition of LTB4 Activity
Ca^2+Flux Assay for LTB4 Antagonist Assay
Human leukemia HL-60 cells endogenously expressing BLT1 and BLT2 receptors were cultured in RPMI-1640 medium supplemented with 20% fetal bovine serum, 2 mM glutamine, 100 U/ml penicillin and 100 ug/ml streptomycin.
Seventy two hours prior to experiment cells are counted using ViaCount reagent, centrifuged and resuspended at 2.0×10^5 cells/ml density with the complete growth media containing 1 μM Retinoic Acid (Sigma).
On a day of the experiment loading buffer (Calcium-3 Assay Kit, Molecular Devices) was prepared by dissolving the contents of one vial (Express Kit) into 500 ml Hank's Balanced Salt Solution containing 20 mM HEPES and 5 mM probenecid. Equal volume of the loading buffer was mixed with the replacement buffer (Hank's Balanced Salt Solution containing 20 mM HEPES, 0.05% BSA and 5 mM probenecid). Retinoic Acid induced HL-60 cells were counted using ViaCount reagent, centrifuged and resuspended at 2.0×10^6 cells/ml density with the loading buffer/replacement buffer, dispensed into 384 well black/clear microplates (Falcon) (25 μl/well) and placed in a 37° C./5% CO2 incubator for 1 hour.
During the incubation, test compounds were prepared at 6× the desired concentration in HBSS/20 mM HEPES/0.05% BSA as well as LTB4 (Biomol) was prepared at 2.2× concentration in HBSS/20 mM HEPES/0.5% BSA buffer.
After the incubation, both the cell and compound plates were brought to the FLIPR and 5 μl of the diluted compounds were transferred to the cell plates by the FLIPR. Plates were then incubated for 30 min at room temperature. After the ½ hour incubation, plates were returned to the FLIPR and 25 μl of 2.2×LTB4 was added to the cell plates. During the assay, fluorescence readings were taken simultaneously from all 384 wells of the cell plate every 1.5 seconds. Five readings were taken to establish a stable baseline, then 25 μl (LTB4) of sample was rapidly and simultaneously added to each well of the cell plate. The fluorescence was continuously monitored before, during and after sample addition for a total elapsed time of 100 seconds. Responses (increase in peak fluorescence) in each well following agonist addition was determined. The initial fluorescence reading from each well, prior to ligand stimulation, was used a zero baseline value for the data from that well. The responses are expressed as % inhibition of the neutral control (neural control: wells that received buffer plus DMSO but no test compound).

SMILES | IC50 [nM]
CCOCc1cc(OCCCCCCc2cccc(OCCCC(=O)O)c2CCC(=O)O)cc(-c2ccc3c(c2)OCO3)c1 [Example 25, 4-[3-[6-(3-Benzo[1,3]dioxol-5-yl-5-ethoxymethyl-phenoxy)-hexyl]-2-(2-carboxy-ethyl)-phenoxy]-butyric acid] | 1.06
COCc1cc(OCCCCCCc2cccc(OCCCC(=O)O)c2CCC(=O)O)cc(-c2ccc3c(c2)OCO3)c1 [Example 8, 4-[3-[6-(3-Benzo[1,3]dioxol-5-yl-5-methoxymethyl-phenoxy)-hexyl]-2-(2-carboxy-ethyl)-phenoxy]-butyric acid] | 0.14
N#CCc1cc(OCCCCCCc2cccc(OCCCC(=O)O)c2CCC(=O)O)cc(-c2ccsc2)c1 [Example 41, 4-{2-(2-Carboxy-ethyl)-3-[6-(3-cyanomethyl-5-thiophen-3-yl-phenoxy)-hexyl]-phenoxy}-butyric acid] | 15.2
COCc1cc(OCCCCCCc2cccc(OCCCC(=O)O)c2CCC(=O)O)cc(-c2ccc3[nH]ccc3c2)c1 [Example 23, 4-[2-(2-Carboxy-ethyl)-3-{6-[3-(1H-indol-5-yl)-5-methoxymethyl-phenoxy]-hexyl}-phenoxy]-butyric acid] | 30.2
COCc1cc(OCCCCCCc2cccc(OCCCC(=O)O)c2CCC(=O)O)cc(-c2cccc(OC)c2)c1 [Example 19, 4-{2-(2-Carboxy-ethyl)-3-[6-(3′-methoxy-5-methoxymethyl-biphenyl-3-yloxy)-hexyl]-phenoxy}-butyric acid] | 9.44
COCc1cc(OCCCCCCc2cccc(OCCCC(=O)O)c2CCC(=O)O)cc(-c2ccc(OC(F)(F)F)cc2)c1 [Example 20, 4-{2-(2-Carboxy-ethyl)-3-[6-(5-methoxymethyl-4′-trifluoromethoxy-biphenyl-3-yloxy)-hexyl]-phenoxy}-butyric acid] | 15.1
O=C(O)CCCOc1cccc(CCCCCCOc2cc(OCc3ccccc3)cc(-c3ccsc3)c2)c1CCC(=O)O [Example 61, 4-[3-[6-(3-Benzyloxy-5-thiophen-3-yl-phenoxy)-hexyl]-2-(2-carboxy-ethyl)-phenoxy]-butyric acid] | 77.7
Cc1ccc(-c2cc(CN(C)C)cc(OCCCCCCc3cccc(OCCCC(=O)O)c3CCC(=O)O)c2)cc1F [Example 35, 4-{2-(2-Carboxy-ethyl)-3-[6-(5-dimethylaminomethyl-3′-fluoro-4′-methyl-biphenyl-3-yloxy)-hexyl]-phenoxy}-butyric acid] | 0.16
CC(=O)c1cc(OCCCCCCc2cccc(OCCCC(=O)O)c2CCC(=O)O)cc(-c2ccc3c(c2)OCO3)c1 [Example 64, 4-[3-[6-(3-Acetyl-5-benzo[1,3]dioxol-5-yl-phenoxy)-hexyl]-2-(2-carboxy-ethyl)-phenoxy]-butyric acid] | 2.95
CN(C)Cc1cc(OCCCCCCc2cccc(OCCCC(=O)O)c2CCC(=O)O)cc(-c2ccsc2)c1 [Example 31, 4-{2-(2-Carboxy-ethyl)-3-[6-(3-dimethylaminomethyl-5-thiophen-3-yl-phenoxy)-hexyl]-phenoxy}-butyric acid] | 0.11
COCc1cc(OCCCCCCc2cccc(OCCCC(=O)O)c2CCC(=O)O)cc(-c2ccc(F)cc2)c1 [Example 10, 4-{2-(2-Carboxy-ethyl)-3-[6-(4′-fluoro-5-methoxymethyl-biphenyl-3-yloxy)-hexyl]-phenoxy}-butyric acid] | 2.52
COCc1cc(OCCCCCCc2cccc(OCCCC(=O)O)c2CCC(=O)O)cc(-c2ccc(F)c(F)c2)c1 [Example 21, 4-[2-(2-Carboxy-ethyl)-3-[6-(3′,4′-difluoro-5-methoxymethyl-biphenyl-3-yloxy)-hexyl]-phenoxy]-butyric acid] | 2.66
COCc1cc(OCCCCCCc2cccc(OCCCC(=O)O)c2CCC(=O)O)cc(-c2cccc(Cl)c2)c1 [Example 18, 4-{2-(2-Carboxy-ethyl)-3-[6-(3′-chloro-5-methoxymethyl-biphenyl-3-yloxy)-hexyl]-phenoxy}-butyric acid] | 13.4
